Data on two molecules can be found in PMC2409900 (British Journal of Cancer, 2004).

Several values for one entry are separate records, joined by “and”; a condition that tells them apart may be missing. Identical values can stand only once.

For one data set, the system named is rat RBCs. The experiment in a line: Ex vivo uptake of 667 COUMATE / 667 COUMARIN by RBCs in whole blood. Type of data set: in vitro ADME. How it is done:
Whole blood was removed from female Wistar rats, pooled, centrifuged (2800 g, 4°C, 15 min) and separated into RBCs and plasma. […] 667 COUMATE was also incubated with plasma only. Duplicate samples were maintained at 37°C for 0.5, 1, 3 and 24 h on rollers. Whole blood was acidified by addition of 1 M (pH 3) citrate buffer (9 : 1, v v^−1). […] Plasma was separated from other blood constituents by centrifugation (2800 g, 4°C, 15 min) and the radioactivity was counted.
(§1) The coefficients of variation (interday and intraday) were <10%.

Data set [1] is described as follows: Pharmacokinetic study: plasma levels after single i.v. or p.o. dose. Conditions: for half-life: t1/2β. The procedure: Female Wistar (155–165 g) rats were purchased from Charles River UK Ltd (Margate, Kent, UK) and housed in a dedicated animal facility. Rats received RM1 rodent maintenance diet (SDS, Kent, UK), water ad libitum and were maintained in positive pressure isolators under a 12 h light–dark cycle. These experiments were approved by the Imperial College Ethical Review Committee and met the standards required by the UKCCCR guidelines ([Workman et al, 1998]). […] Three rats were used for each time point. Rats were subjected to terminal anaesthesia (halothane) and blood was removed by cardiac puncture at 2.5, 5, 15, 30 and 45 min and 1, 3, 8, 16 and 24 h after i.v. administration. […] Plasma and RBCs were prepared from whole blood by centrifugation (2800 g, 4°C, 15 min). […] 7-Hydroxycoumarin (3 μg ml^−1) was used as an internal standard. The organic phase was decanted to a fresh tube and evaporated to dryness under a stream of air at room temperature. […] Briefly, RBCs were mixed with blank plasma (1 : 1, v v^−1) and mixed by inversion in order to reconstitute ‘whole blood’. 7-Hydroxycoumarin (3 μg ml^−1) was added to the whole blood (500 μl). […] Samples were thawed, vortexed for a further 5 min, centrifuged (15 000 g, 15 min) and the supernatant was removed and filtered ([…], acrodisc CR PTFE). The diethyl ether was removed under a stream of air. […] The residues were stored at −20°C in preparation for HPLC analysis.
Pharmacokinetic parameters were calculated using WinNonlin software (Pharsight Corporation, Mountview, CA, USA). The area under the curve (AUC) was calculated using the linear trapezoidal method with extrapolation of the terminal phase to infinity. Other parameters calculated were as follows: elimination rate constant (β); total body clearance (Cl)=dose/AUC; volume of distribution (Vd)=Cl/β; elimination half-life (t1/2β)=0.693/β; bioavailability (%F)=(AUCoral/AUCi.v.) × 100.

Data set [2] in a line: Stability of 667 COUMATE in vehicle. Format: physicochemical. Conditions: HPLC.
The next data set has as its system STS. Details: method as in Ireson et al, 2003. Conditions: ref Ireson et al, 2003; cited from earlier work.
Data set [3] in a line: Ex vivo stability in plasma and whole blood (667 COUMATE/667 COUMARIN ratio). Format: in vitro ADME, rat. How it is done: Whole blood was removed from female Wistar rats, pooled, centrifuged (2800 g, 4°C, 15 min) and separated into RBCs and plasma. […] 667 COUMATE was also incubated with plasma only. […] Whole blood was acidified by addition of 1 M (pH 3) citrate buffer (9 : 1, v v^−1). […] Plasma was separated from other blood constituents by centrifugation (2800 g, 4°C, 15 min) and the radioactivity was counted.
as §1

Data set [4] can be described thus: In vivo uptake into RBCs after single p.o. or i.v. dose. The following applies: female, Wistar, 10 mg kg^−1, rat.
Source text: Three rats were used for each time point.
as §1

Another data set deals with rat liver STS. Conditions: cited from earlier work.
Details of data set [5]: method as in Ireson et al, 2003. Conditions: by 4 h; ref Ireson et al, 2003; cited from earlier work.
The subject of data set [6] is E1S-stimulated nitrosomethylurea-induced mammary tumours. Conditions: cited from earlier work.
Where [7] appears, read: female, Wistar, rat, in vivo, iv, 10 mg/kg.
Where [8] appears, read: female, Wistar, rat, in vivo, po, 10 mg/kg.

For the molecule `O=c1oc2cc(O)ccc2c2c1CCCCC2` [667 COUMARIN, 3-Hydroxy-6-oxo-8,9,10,11-tetrahydro-7H-cyclohepta-[c] [1] benzopyran], in the data set with rat RBCs (whole rat blood preincubated with acetazolamide (100 μM)), the “effect of acetazolamide preincubation on uptake into RBCs” value was “did not affect this uptake”. Further, the “uptake into RBCs” value in the data set with rat RBCs (whole rat blood, 667 COUMARIN 10 μg ml^−1, no acetazolamide) stood at 50%. Further, in data set [1] (rat plasma after i.v. or p.o. 667 COUMATE), the “formation as metabolite of 667 COUMATE in vivo” value is “only a minor metabolic product”. For the same molecule, the “level of degradation product 667 COUMARIN in vehicle” value in data set [2] (667 COUMATE in vehicle on ice for up to 6 h) is “below the limit of detection”. In addition, the STS inhibitory activity result in the data set on STS is given as “devoid of any STS inhibitory activity”.

On to `NS(=O)(=O)Oc1ccc2c3c(c(=O)oc2c1)CCCCC3` [667 COUMATE, 6-oxo-8,9,10,11-tetrahydro-7H-cyclohepta-[c] [1] benzopyran-3-O-sulphamate], for which the “percentage of agent retained by the RBCs” value in the data set on rat RBCs (24 h after addition to whole rat blood) came to 48%. The “percentage of agent taken up by RBCs (two independent analytical methods)” value in the data set on rat RBCs (added to rat whole blood ex vivo) is “more than 70%”. The “uptake into RBCs after preincubation with acetazolamide” value in the data set with rat RBCs (whole rat blood preincubated 30 min with acetazolamide (100 μM)) is reported as 50%. Also, in the data set on rat RBCs (whole rat blood, 30 min incubation, 37°C, 10 μg ml^−1, HPLC), the “percentage of agent associated with the RBC fraction” value is “more than 80%”. In addition, in [3] (plasma, 3 h incubation), the “parent compound remaining in plasma” value is given as “below the limit of detection”. The “parent compound remaining in whole blood” value in data set [3] (whole blood, after 48 h incubation) is reported as “could still be detected”. The Cl is 53.5 ± 2.6 mL/h in [1] (10 mg kg^−1 bolus i.v., rat, Cl=dose/AUC); 54 mL/h and 54.2 ± 2.4 mL/h in data set [1] (10 mg kg^−1 p.o., rat, Cl=dose/AUC). Further, the t1/2β in data set [1] (10 mg kg^−1 p.o., rat plasma) came to 1.97 ± 0.3 h. Moreover, the Vd came out at 0.1532 ± 0.0187 L/kg in data set [1] (10 mg kg^−1 p.o., rat, Vd=Cl/β) and 0.0939 ± 0.0029 L/kg in data set [1] (setting [7]). In data set [1] (female, Wistar, rat, in vivo, 10 mg kg^−1), the concentration at 8 h was > 100 ng/mL. The molecule further gave a bioavailability in data set [1] (female, Wistar, rat, in vivo, 10 mg kg^−1, %F (bioavailability), 10 mg kg^−1 p.o. vs i.v., rat, (AUCoral/AUCi.v.) × 100) of 95%. Further, the AUC in data set [1] (setting [7]) came to 35800 ± 1300 ng·h/mL; in [1] (setting [8]), 34400 ± 1100 ng·h/mL. Also, the maximum concentration (Cmax) amounted to 22800 ± 600 ng/mL in data set [1] (setting [7]) and 11900 ± 400 ng/mL in data set [1] (setting [8]). For the same molecule, the k el in data set [1] (setting [7]) is 0.000167 s⁻¹; in data set [1] (setting [8]) it was 8.33e-05 s⁻¹. Further, in data set [1] (female, Wistar, rat, in vivo, iv, 10 mg/kg, Cl, 10 mg kg^−1 bolus i.v., Cl=dose/AUC), the clearance is 0.883 mL/min. For the same molecule, the half-life was 1.2 ± 0.1 h in [1] (female, Wistar, rat, in vivo, iv, 10 mg/kg, 10 mg kg^−1 bolus i.v., rat plasma) and 2 h in data set [1] (female, Wistar, rat, in vivo, po, 10 mg/kg, 10 mg kg^−1 p.o., rat plasma). For the same molecule, in data set [1] (oral dosing 10 mg kg^−1, rat), the “time at which maximum level in plasma was attained” value turned out to be 30 min. Besides, the “time for which 667 COUMATE could be detected in plasma” value in data set [1] (single 10 mg kg^−1 i.v. or p.o. dose, rat) was “up to 8 h”. Moreover, the stability in vehicle result in data set [2] (THF : PEG-400 : water 1:6:3, on ice for up to 6 h) is “stable”. Moreover, the concentration at 30 min in data set [4] (iv, 30 min after i.v. administration) was 19000 ng/mL; in data set [4] (po, 30 min after p.o. administration) it was 12000 ng/mL. For the same molecule, in the data set with rat liver STS (10 mg kg^−1, ref Purohit et al, 2000, 2001), the “inhibition of rat liver STS” value is 93%. Besides, the “duration of STS inhibition in vivo after a single dose” value in the data set on rat liver STS (rat, hepatic STS, ref Purohit et al, 2001) is “up to 24 h”. Further, the “percentage of agent removed on incubation with plasma” value in data set [5] is listed as 80%. The “inhibition of STS activity in mammary tumours” value in [6] (nitrosomethylurea-induced mammary tumours in rats, ref Purohit et al, 2000) is listed as “almost completely inhibit STS activity”. For the same molecule, the “growth of E1S-stimulated tumours” value in data set [6] (nitrosomethylurea-induced rat mammary model, ref Purohit et al, 2000, 2001) is “causes a reduction in the growth”.
